Experimental data as given in patent publication US9244073B2, “Assays for detecting enzymatic activity” (Wellstat Diagnostics, LLC, priority 2011, dated 2016).

Tests used:
Type in all cases: biochemical
bovine FX = assay: Detecting plasma FIX activity by detecting FXa activity using an immunoassay (ECL); conditions: diluted reference plasma
Experimental: A FIX activity calibrator curve was set up in a 96-well U bottom microtiter plate, which was equilibrated to 37° C. in an incubator. All coagulating factor reagents were from Haematologic Technologies, Inc. ((HTI), Essex Junction, Vt.), unless specifically noted. To 50 μL of a factor reagent containing 1.6 nM bovine FXIa (Cat: HCX1A-0160), 0.0681 nM bovine α-thrombin (Cat: BCT-1020), 24.5 nM bovine FX (BCX-1050), […] FVIII (Cat: PRO-318, PROSPEC, Rehovot, Israel), 100 μM phosphorliposome (80% phosphatidylcholine and 20% phosphatidylserine) and 0.75 mM Gly-Pro-Arg-Pro amide (Cat: GPRP-NH2. Sigma, St. Louis; SEQ ID NO:32), 25 μL of a diluted reference plasma (HEMOSIL™ Calibration Plasma, Cat: 0020003700, Diapharma Group Inc., Columbus, Ohio) containing 24.4, 8.13, 2.71, 0.904, 0.301, 0.100 and 0.0335 mU/mL of FIX in the assay buffer (Example 4) were added, mixed and incubated for exactly 10 minutes in a hot plate set at 37° C. After the incubation, to the 75 μL of assay mixture, 50 μL of a master mix of FXa detection reagent (Example 4), containing 200 μg/mL of M280-SA beads, 600 ng/mL of a peptide (peptide sequence III), 1000 ng/mL of TAG Plus anti-FLAG® M1 antibody (Example 2), and 30 μg/mL I-2581 (synthetic thrombin inhibitor, cat: 82110810, DiaPharma Group Inc. West Chester, Ohio 45069) in assay buffer (Example 4) was added and incubated for a final 20 minutes at 37° C. After the incubation, the beads were washed once in 150 μL of a PBS-based buffer solution (Example 3) and were resuspended in 150 μL of the same buffer before beads were read in a M1MR analyzer (BioVeris).

FXa = assay: Detecting FXa activity by detection of a neoepitope, competitive immunoassay format (ECL); conditions: for % Signal Decrease / Mean Signal: 15 minutes at 37° C.
Sequence of FXa (P00742 41-179 limits assumed): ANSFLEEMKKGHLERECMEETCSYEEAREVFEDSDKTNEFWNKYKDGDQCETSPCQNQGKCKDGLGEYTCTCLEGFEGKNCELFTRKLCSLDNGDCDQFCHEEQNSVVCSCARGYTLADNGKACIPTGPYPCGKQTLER
Sequence of FXa (P00742 235-488 limits assumed): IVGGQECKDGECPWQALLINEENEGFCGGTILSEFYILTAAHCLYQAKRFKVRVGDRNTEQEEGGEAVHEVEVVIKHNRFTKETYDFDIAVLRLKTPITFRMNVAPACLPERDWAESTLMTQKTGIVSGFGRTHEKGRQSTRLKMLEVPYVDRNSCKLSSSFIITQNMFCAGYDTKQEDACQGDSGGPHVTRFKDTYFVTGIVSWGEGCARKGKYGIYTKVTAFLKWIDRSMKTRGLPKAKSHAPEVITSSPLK
Description: Another method for detecting FXa activity uses a competitive immunoassay format. For example, peptide sequence VI, below, comprises a FXa recognition site (-IEGR-) (SEQ ID NO:1) at its N-terminus and the peptide sequence IV-amide (DYKDDDDKGS-amide) (SEQ ID NO:4) at its C-terminus. The FXa cleavage of the peptide bond after the arginine residue of -IEGR- (SEQ ID NO:1) sequence produces a neoepitope (SEQ ID NO:4), which can be measured with a TAG Plus-conjugated peptide (sequence VII) and a capture antibody in a competitive immunoassay format.
A FXa activity calibrator curve was set up in a 96-well U bottom microtiter plate containing 100 μL of a 3-fold serial dilution of FXa at 500, 167, 55.6, 18.5, 6.17, 2.06 and 0.686 ng/mL in the assay buffer (Example 4) and 50 μL of a master mix of FXa detection reagent containing 200 μg/mL of M280-SA beads prebound with biotinylated capture antibody (5.0 μg antibody per 1.0 mg of beads) (anti-FLAG® MD, 200 μg/mL of the NH2-IEGRDYKDDDDKGS-amide (Peptide sequence VI; SEQ ID NO:5) and 100 ng/mL of NH2-DYKDDDDKGS-TAG Plus (Peptide sequence VII; SEQ ID NO:4) in the same assay buffer. The plate was incubated on a hot plate (Example 4) at 37° C. for 15 minutes. After the incubation, the beads were washed once in 150 μL of the PBS-based buffer solution (Example 3) and were resuspended in 150 μL of the PBS-based buffer and read in a M1MR analyzer (BioVeris). FXa activities were detectable at 1.0 ng/mL or lower concentrations which produced about a 10% decrease of the background signals (the sample without FXa).

bovine factor Xa = assay: Detecting heparin activity with an ECL-based FXa activity immunoassay (with human antithrombin)
Sequence of bovine factor Xa (P01008 33-464): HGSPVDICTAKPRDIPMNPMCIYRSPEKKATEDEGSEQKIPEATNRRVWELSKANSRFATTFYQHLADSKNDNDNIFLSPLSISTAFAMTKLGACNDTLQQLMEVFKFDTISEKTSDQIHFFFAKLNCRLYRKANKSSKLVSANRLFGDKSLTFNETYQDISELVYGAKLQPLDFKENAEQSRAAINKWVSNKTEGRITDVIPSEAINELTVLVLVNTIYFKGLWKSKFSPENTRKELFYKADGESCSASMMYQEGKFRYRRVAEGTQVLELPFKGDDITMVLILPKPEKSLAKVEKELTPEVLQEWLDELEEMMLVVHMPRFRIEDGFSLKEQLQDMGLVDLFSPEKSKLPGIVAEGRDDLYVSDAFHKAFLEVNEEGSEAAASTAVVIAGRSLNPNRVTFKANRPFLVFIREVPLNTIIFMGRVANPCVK
Experimental: A heparin activity calibrator curve was set up in a 96-well U bottom microtiter plate, which was equilibrated to 37° C. in an incubator. To each well, 25 μL of 100, 50, 25, 12.5, 6.25 and 3.13 mIU/mL heparin prepared from a heparin sodium Salt (Cat: H4784-2500MG, Sigma, St. Louis) and 25 μL of 1.0 IU/mL human antithrombin (from kit of BIOPHEN Heparin Anti-Xa, Ref: 221010, Aniara Diagnostica LLC, Columbus, Ohio) were added and incubated for 2 minutes at 37° C. Then to the mixture, 25 μL of 8.0 μg/mL bovine factor Xa (from kit of BIOPHEN Heparin Anti-Xa, Ref: 221010, Aniara Diagnostica LLC, Columbus, Ohio) was added, followed immediately with 25 μL of a master mix of FXa detection reagent containing 400 μg/mL of M280-SA beads, 1.2 μg/mL of a peptide (peptide sequence V), 2.0 μg/mL of TAG Plus anti-FLAG® M1 antibody (Example 2) and 25 mM CaCl2. The subsequent mixture was incubated for a final 20 minutes at 37° C. After the incubation, the beads were washed once in 150 μL of the PBS-based buffer solution (Example 3) and were resuspended in 150 μL of the same buffer before beads were read in a M1MR Analyzer (BioVeris).

Substance: FIX: FIX in diluted reference plasma (HEMOSIL Calibration Plasma)
- Mean Signal (bovine FX; FIX 0.0335 mU/mL): 3665
- Signal/Background (bovine FX; FIX 0.0335 mU/mL): 1.1
- Mean Signal (bovine FX; FIX 0.100 mU/mL): 4050
- Signal/Background (bovine FX; FIX 0.100 mU/mL): 1.2
- Mean Signal (bovine FX; FIX 0.301 mU/mL): 5626
- Signal/Background (bovine FX; FIX 0.301 mU/mL): 1.6
- Mean Signal (bovine FX; FIX 0.904 mU/mL): 8707
- Signal/Background (bovine FX; FIX 0.904 mU/mL): 2.5
- Mean Signal (bovine FX; FIX 2.71 mU/mL): 16884
- Signal/Background (bovine FX; FIX 2.71 mU/mL): 4.9
- Mean Signal (bovine FX; FIX 8.13 mU/mL): 30879
- Signal/Background (bovine FX; FIX 8.13 mU/mL): 9.0
- Mean Signal (bovine FX; FIX 24.4 mU/mL): 40234
- Signal/Background (bovine FX; FIX 24.4 mU/mL): 11.7

Substance: NH2-IEGRDYKDDDDKGS-amide (H-IEGRDYKDDDDKGS-NH2) [Peptide sequence VI]
- decrease of the background signals at the detectable FXa concentration (FXa; FXa 1.0 ng/mL or lower, background = sample without FXa): ~10%
- % Signal Decrease (FXa; Xa 0.686 ng/mL): −8.5%
- Mean Signal (FXa; Xa 0.686 ng/mL): 84026
- % Signal Decrease (FXa; Xa 2.06 ng/mL): −22%
- Mean Signal (FXa; Xa 2.06 ng/mL): 71945
- % Signal Decrease (FXa; Xa 6.17 ng/mL): −42%
- Mean Signal (FXa; Xa 6.17 ng/mL): 52963
- % Signal Decrease (FXa; Xa 18.5 ng/mL): −60%
- Mean Signal (FXa; Xa 18.5 ng/mL): 36383
- % Signal Decrease (FXa; Xa 55.6 ng/mL): −75%
- Mean Signal (FXa; Xa 55.6 ng/mL): 22509
- % Signal Decrease (FXa; Xa 167 ng/mL): −84%
- Mean Signal (FXa; Xa 167 ng/mL): 14300
- % Signal Decrease (FXa; Xa 500 ng/mL): −89%
- Mean Signal (FXa; Xa 500 ng/mL): 9830

Substance: heparin sodium Salt
- % Signal Decrease (bovine factor Xa; Heparin 3.13 mIU/mL): −19%
- Mean Signal (bovine factor Xa; Heparin 3.13 mIU/mL): 81999
- % Signal Decrease (bovine factor Xa; Heparin 6.25 mIU/mL): −38%
- Mean Signal (bovine factor Xa; Heparin 6.25 mIU/mL): 62502
- % Signal Decrease (bovine factor Xa; Heparin 12.5 mIU/mL): −60%
- Mean Signal (bovine factor Xa; Heparin 12.5 mIU/mL): 40868
- % Signal Decrease (bovine factor Xa; Heparin 25.0 mIU/mL): −81%
- Mean Signal (bovine factor Xa; Heparin 25.0 mIU/mL): 19648
- % Signal Decrease (bovine factor Xa; Heparin 50.0 mIU/mL): −93%
- Mean Signal (bovine factor Xa; Heparin 50.0 mIU/mL): 7203
- % Signal Decrease (bovine factor Xa; Heparin 100 mIU/mL): −97%
- Mean Signal (bovine factor Xa; Heparin 100 mIU/mL): 3322
